From US4273866A, “Ligand analog-irreversible enzyme inhibitor conjugates and methods for use” (priority 1979, dated 1981)

Experiments:
[1] = target: T1, E. electricus acetylcholinesterase (Electrophorus electricus, UniProt O42275); test: Residual enzyme activity with Compound I, antibody and digoxin in buffer; type: biochemical; settings: antibody 4.5×10^-7 molar, after 21 minutes
Description: (§1) A stock solution of Compound I (4.6×10^-3 molar in methanol) is diluted 200-fold with pH 7.0, 0.1 molar phosphate buffer containing 0.1% gelatin. Digoxin antibody is diluted in phosphate-gelatin buffers as indicated in Table I. Fifty microliters of phosphate-gelatin buffer, pH 7.0, containing the indicated concentration of antibody is placed in sample cups of a bichromatic spectrophotometer (model ABA-100® sold by Abbott Laboratories). To each of these 50 μl is added 1 μl of Compound I working solution making the final concentration 4.5×10^-7 molar. The antibody and Compound I (inhibitor) are allowed to incubate for 10-15 minutes at room temperature. Each sample receives 1 .parallel.l of working enzyme solution (9.5×10^-9 molar of E. electricus acetylcholinesterase in pH 7.0 phosphate-gelatin buffer). The final enzyme concentration is 1.9×10^-10 molar. The sample is diluted 1/26 with assay buffer containing acetylthiocholine, as substrate, 5×10^-4 molar and 5,5'-dithiobis-(2 -nitrobenzoic acid) (DTNB), 1.6×10^-4 molar in pH 7.0 phosphate-gelatin buffer. The change in absorbance with time is measured after 5 minutes in the bichromatic analyzer equipped with a 415/550 nm filter at 30° C. The results are as follows:
(§2) The above experiment is repeated except digoxin at a concentration of 2.5×10^-5 molar is added to the sample cups. […] Fifty microliters of phosphate-gelatin buffer is added to a sample cup. The buffer solution either contains 2.5×10^-5 molar digoxin or is a control. To the sample cup is added a final concentration of 9×10^-7 molar digoxin antibody and 4.5×10^-7 molar Compound I. These solutions are allowed to incubate for 15 minutes and then enzyme is added and assayed according to the previous procedure. The results are as follows:
Using the above procedures with the exception that the antibody final concentration in the sample is 4.5×10^-7 molar, various phosphate-gelatin buffer solutions are prepared with the indicated digoxin concentration. Each of these solutions are analyzed by adding antibody and Compound I to the solution as in the previous procedure, allowing a 2.5 minute incubation period to elapse and assaying for the residual enzyme activity after 21 minutes.

acetylcholinesterase = test: Digoxin in serum assay with Compound I; type: biochemical, E. electricus
Description: as §1
Normal human serum containing digoxin concentrations listed in the table below are assayed by the procedure set out above.
N-Ethylmaleimide is used to block background sulfhydryl groups in human serum.
Thus, 1 μl of concentrated digoxin antibody in pH 7.0 phosphate-gelatin buffer containing 50 mM of N-methylorphenadrine is added to 50 μl of each serum standard then N-ethylmaleimide is added with mixing to each serum standard to make a working concentration of 1.6 mM. To the serum is also added 1 μl of a solution containing Compound I in pH 7.0, 0.1 molar phosphate-gelatin buffer. The final antibody concentration is 8.0×10^-7 molar and the final concentration of Compound I is 4.5×10^-7. These solutions are allowed to incubate for 12 minutes at which time acetylcholinesterase is added as before. After 26 minutes, the bichromatic spectrophotometer is started and a sample from each cup is diluted 26-fold with assay buffer containing 1.6×10^-5 molar DTNB, 5×10^-4 molar acetyl-β-methylthiocholine iodide, and 1 mM N-methyl-orphenadrine in pH 7.0, 0.1 molar phosphate-gelatin buffer. The final enzyme concentration is about 2×10^-11 molar and the cuvette temperature is 30° C. The change in absorbance after 5 minutes is as follows: […]

[2] = target: T1, E. electricus acetylcholinesterase; test: Antibody modulation of Compound I inhibitory activity (residual acetylcholinesterase activity); type: biochemical; settings: Compound I 4.5 × 10^-7 M
Description: as §1, with “C.” for “C. The results are as follows:”

[3] = target: T1, E. electricus acetylcholinesterase; test: Specific modulation of Compound I inhibition by digoxin antibody and digoxin; type: biochemical
Description: as §1
as §2, with “procedure.” for “procedure. The results are as follows:”

[4] = system: human serum cholinesterase; test: Inhibition of human serum cholinesterase; type: biochemical; settings: 1 mM
From the text: (§3) N,N,N-Trimethyl-2-(o-methyl-α-phenylbenzyloxy) ethylammonium methylsulfate(N-methylorphenadrine) prepared by reacting N,N-dimethyl-2-(o-methyl-α-phenylbenzyloxy) ethylamine(orphenadrine)with dimethylsulfate.

[5] = target: cholinesterase from E.electricus (Electrophorus electricus, UniProt O42275); test: Inhibition of cholinesterase from E.electricus; type: biochemical; settings: 1 mM
Sequence of cholinesterase from E.electricus (O42275 24-633): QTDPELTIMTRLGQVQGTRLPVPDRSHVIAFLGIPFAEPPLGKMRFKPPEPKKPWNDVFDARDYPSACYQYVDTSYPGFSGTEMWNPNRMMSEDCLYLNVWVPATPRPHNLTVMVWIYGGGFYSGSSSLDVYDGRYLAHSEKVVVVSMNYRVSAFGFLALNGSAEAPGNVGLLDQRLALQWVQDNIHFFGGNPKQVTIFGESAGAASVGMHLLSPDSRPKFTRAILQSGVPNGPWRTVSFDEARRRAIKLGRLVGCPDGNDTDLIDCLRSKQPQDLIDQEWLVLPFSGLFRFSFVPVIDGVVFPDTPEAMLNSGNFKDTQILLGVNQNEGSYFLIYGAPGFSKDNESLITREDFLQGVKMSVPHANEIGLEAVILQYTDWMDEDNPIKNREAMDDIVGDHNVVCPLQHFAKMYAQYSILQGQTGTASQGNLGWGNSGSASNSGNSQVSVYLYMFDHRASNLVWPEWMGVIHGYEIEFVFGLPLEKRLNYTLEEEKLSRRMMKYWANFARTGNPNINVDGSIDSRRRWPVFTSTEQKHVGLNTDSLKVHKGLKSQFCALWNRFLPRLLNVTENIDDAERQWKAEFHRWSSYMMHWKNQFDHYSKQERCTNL
From the text: as §3

T1 sequence (O42275 24-633): as above

## CCOP(=O)(OCCCCCNC(=O)CCCCCNC(=O)OC1CCC2(C)C(CCC3C2CC(O)C2(C)C(C4=CC(=O)OC4)CCC32O)C1)Oc1ccc2ccc[n+](C)c2c1 (stereo not shown) [Compound I]
[1]; digoxin 0.062 μM
  % Activity of Enzyme: 65%
[1]; digoxin 0.125 μM
  % Activity of Enzyme: 65%
[1]; digoxin 0.25 μM
  % Activity of Enzyme: 62%
[1]; digoxin 0.5 μM
  % Activity of Enzyme: 57%
[1]; digoxin 1.0 μM
  % Activity of Enzyme: 36%
acetylcholinesterase; digoxin in serum 0.1 μM, antibody 8.0×10^-7 molar, Compound I 4.5×10^-7
  change in absorbance after 5 minutes: 0.096 Ad/5 Min.
acetylcholinesterase; digoxin in serum 0.13 μM
  change in absorbance after 5 minutes: 0.089 Ad/5 Min.
acetylcholinesterase; digoxin in serum 0.17 μM
  change in absorbance after 5 minutes: 0.083 Ad/5 Min.
acetylcholinesterase; digoxin in serum 0.26 μM
  change in absorbance after 5 minutes: 0.077 Ad/5 Min.
acetylcholinesterase; digoxin in serum 0.34 μM
  change in absorbance after 5 minutes: 0.073 Ad/5 Min.
acetylcholinesterase; digoxin in serum 0.51 μM
  change in absorbance after 5 minutes: 0.063 Ad/5 Min.
acetylcholinesterase; digoxin in serum 0.64 μM
  change in absorbance after 5 minutes: 0.060 Ad/5 Min.
acetylcholinesterase; digoxin in serum 0.85 μM
  change in absorbance after 5 minutes: 0.047 Ad/5 Min.
acetylcholinesterase; digoxin in serum 1.30 μM
  change in absorbance after 5 minutes: 0.035 Ad/5 Min.
[2]; antibody 9 × 10^-7 M, enzyme 1.9 × 10^-10 M, 10' incubation
  change in absorbance with time: 0.161 Ad/5 min.
[2]; antibody 9 × 10^-7 M, enzyme 1.9 × 10^-10 M, 21' incubation
  change in absorbance with time: 0.137 Ad/5 min.
[2]; antibody 9 × 10^-7 M, enzyme 1.9 × 10^-10 M, 43' incubation
  change in absorbance with time: 0.107 Ad/5 min.
[2]; antibody 9 × 10^-8 M, enzyme 1.9 × 10^-10 M, 10' incubation
  change in absorbance with time: 0.089 Ad/5 min.
[2]; antibody 9 × 10^-8 M, enzyme 1.9 × 10^-10 M, 21' incubation
  change in absorbance with time: 0.027 Ad/5 min.
[2]; antibody 9 × 10^-8 M, enzyme 1.9 × 10^-10 M, 43' incubation
  change in absorbance with time: 0.005 Ad/5 min.
[2]; no antibody, enzyme 1.9 × 10^-10 M (enzyme alone 0.220), 10' incubation
  change in absorbance with time: 0.045 Ad/5 min.
[2]; no antibody, enzyme 1.9 × 10^-10 M (enzyme alone 0.221), 21' incubation
  change in absorbance with time: 0.015 Ad/5 min.
[2]; no antibody, enzyme 1.9 × 10^-10 M (enzyme alone 0.222), 43' incubation
  change in absorbance with time: 0.003 Ad/5 min.
[3]; Enzyme + Compound I + Antibody (9×10^-7 molar), 0.3'
  Ad/5 min. after enzyme-inhibitor incubation time: 0.160 Ad/5 min.
[3]; Enzyme + Compound I + Antibody (9×10^-7 molar), 11'
  Ad/5 min. after enzyme-inhibitor incubation time: 0.129 Ad/5 min.
[3]; Enzyme + Compound I + Antibody (9×10^-7 molar), 19'
  Ad/5 min. after enzyme-inhibitor incubation time: 0.115 Ad/5 min.
[3]; Enzyme + Compound I + Antibody + Digoxin (2.5×10^-5 molar), 0.3'
  Ad/5 min. after enzyme-inhibitor incubation time: 0.160 Ad/5 min.
[3]; Enzyme + Compound I + Antibody + Digoxin (2.5×10^-5 molar), 11'
  Ad/5 min. after enzyme-inhibitor incubation time: 0.068 Ad/5 min.
[3]; Enzyme + Compound I + Antibody + Digoxin (2.5×10^-5 molar), 19'
  Ad/5 min. after enzyme-inhibitor incubation time: 0.038 Ad/5 min.
[3]; Enzyme + Compound I, 0.3' (enzyme only 0.174)
  Ad/5 min. after enzyme-inhibitor incubation time: 0.162 Ad/5 min.
[3]; Enzyme + Compound I, 11' (enzyme only 0.169)
  Ad/5 min. after enzyme-inhibitor incubation time: 0.037 Ad/5 min.
[3]; Enzyme + Compound I, 19' (enzyme only 0.167)
  Ad/5 min. after enzyme-inhibitor incubation time: 0.013 Ad/5 min.

## Cc1ccccc1C(OCC[N+](C)(C)C)c1ccccc1 (stereo not drawn) [N-methylorphenadrine, N,N,N-Trimethyl-2-(o-methyl-α-phenylbenzyloxy) ethylammonium methylsulfate]
[4]
  inhibition of human serum cholinesterase: greater than 99%
[5]
  inhibition at 1000 µM: 25%
